The conditions of data set [1]: 318.15 K; 101.33 kPa; Liquid; Vibrating tube method.
Data set [2] is described as follows: refractive index (Na D-line) (dimensionless). As to conditions: 318.15 K; 101.33 kPa; Liquid; Standard Abbe refractometry.

± gives the expanded uncertainty stated by the source.

Take `CCCCCCCCCCC` [undecane]: the mass density (commonly mass per unit of volume) in data set [1] is given as 721.76 ± 0.41 kg/m3. Moreover, in data set [2], the refractive index (usually a measure of how strongly the sample bends light) was 1.4063 ± 0.0008.

For the molecule `CCCCCCC` [heptane], the mass density in data set [1] was 662.04 ± 0.27 kg/m3. In addition, the refractive index in data set [2] was 1.3748 ± 0.0007.

`CCCCOC(C)=O` [butyl ethanoate]: the mass density in data set [1] is 855.39 ± 0.17 kg/m3. In addition, the refractive index in data set [2] worked out at 1.3825 ± 0.0007.

Consider `CCCOC(C)=O` [propyl ethanoate], for which the mass density in data set [1] worked out at 859.78 ± 0.88 kg/m3. The refractive index in data set [2] is 1.3721 ± 0.0008.

Consider `COC(C)=O` [methyl ethanoate], for which the mass density in data set [1] is 900.1 ± 0.24 kg/m3. Moreover, the refractive index in data set [2] is given as 1.349 ± 0.0007.

In the case of `CCCCCCCCC` [nonane], the mass density in data set [1] turned out to be 698.06 ± 0.4 kg/m3. The refractive index in data set [2] is on record as 1.3939 ± 0.0008.

For `CCCCCOC(C)=O` [pentyl ethanoate], the mass density in data set [1] is reported as 852.93 ± 0.45 kg/m3. In data set [2], the refractive index turned out to be 1.391 ± 0.0008.

Values taken from the NIST ThermoML archive (doi:10.1016/j.jct.2003.11.008).
